Laboratory results reported in patent publication EP0406992A2, “New non-ionic carboxamide contrast agent” (SCHERING AKTIENGESELLSCHAFT, priority 1989, dated 1991).
Read-outs that look alike come from different tables or passages of the source. Marks after values point to notes of the source that are not given here.

What was measured:
männl. Maus 16-20 g = conditions: male mouse 16-20 g, approximate range
männl. Ratte 80-100 g = conditions: male rat 80-100 g, approximate range
[1] = Osmolality of contrast agent solutions; type: physicochemical; conditions: for Osmolalität von 300 mg I/ml Lösungen wäßrige Lösung: aqueous solution; for Osmolalität von 300 mg I/ml Lösungen pharmazeutisch formul. Lösung: pharmaceutically formulated solution
[2] = values marked * (Laut Literaturangabe); cited from earlier work
[3] = Viscosity of contrast agent solutions at 37 °C; type: physicochemical; conditions: for Viskosität von 300 mg I/ml bei 37 °C: pharmaceutically formulated solution, determined in applicant's laboratory

Structure (SMILES)	Näherungsbereich i.v. LD₅₀ männl. Maus 16-20 g (männl. Maus 16-20 g)	Näherungsbereich i.v. LD₅₀ männl. Ratte 80-100 g (männl. Ratte 80-100 g)	Osmolalität von 300 mg I/ml Lösungen wäßrige Lösung [1] [mOsm]	Osmolalität von 300 mg I/ml Lösungen pharmazeutisch formul. Lösung [1] [mOsm]	Viskosität von 300 mg I/ml bei 37 °C [3]	further results
COCC(=O)Nc1c(I)c(C(=O)NCC(O)CO)c(I)c(C(=O)N(C)CC(O)CO)c1I (centres unmarked) [Iopromid]	14-16 g I/kg	11-12 g I/kg	607	630	–	Viskosität von 300 mg I/ml bei 37 °C [2]: 4,6* cps
CC(=O)N(CC(O)CO)c1c(I)c(C(=O)NCC(O)CO)c(I)c(C(=O)NCC(O)CO)c1I (centres unmarked) [Iohexol]	16-17 g I/kg	11,5-12,5 g I/kg	–	–	–	–
CC(=O)N(CC(O)CO)c1c(I)c(C(N)=O)c(I)c(C(=O)NCC(O)CO)c1I (centres unmarked) [Verbindung 19, 5-{N-(2,3-Dihydroxypropyl)acetamido}-2,4,6-triiod-3-{N-(2,3-dihydroxypropyl)}carbamoyl-Benzamid]	14-16 g I/kg	13-14 g I/kg	365	390	4,1 cps	Viskosität bei 37 °C ([3]; injection solution 300 mg I/ml, CaNa2-EDTA 10 mg, Tris 121 mg per 100 ml, pH 7,0, 37 °C): 4,1 Centipoise; Viskosität bei 37 °C ([3]; injection solution 350 mg I/ml, CaNa2-EDTA 10 mg, Tris 121 mg per 100 ml, pH 7,0, 37 °C): 6,6 Centipoise; Viskosität bei 37 °C ([3]; injection solution 400 mg I/ml, CaNa2-EDTA 10 mg, Tris 121 mg per 100 ml, pH 7,0, 37 °C): 10,6 Centipoise; Osmolalität ([1]; injection solution 300 mg I/ml, CaNa2-EDTA 10 mg, Tris 121 mg per 100 ml, pH 7,0, autoclaved): 399 mOsm/kg; Osmolalität ([1]; injection solution 350 mg I/ml, CaNa2-EDTA 10 mg, Tris 121 mg per 100 ml, pH 7,0, autoclaved): 473 mOsm/kg; Osmolalität ([1]; injection solution 400 mg I/ml, CaNa2-EDTA 10 mg, Tris 121 mg per 100 ml, pH 7,0, autoclaved): 510 mOsm/kg
CC(=O)N(CCO)c1c(I)c(C(N)=O)c(I)c(C(=O)NC(CO)C(O)CO)c1I (stereo not drawn) [Verbindung 11, 5-{N-(2-Hydroxyethylacetamido)}-2,4,6-triiod-3-{N-(1,3,4-trihydroxy-threo-but-2-yl)}carbamoyl-Benzamid]	15,5-16,5 g I/kg	15,5-17,5 g I/kg	300	326	4,2 cps	Viskosität bei 37 °C ([3]; injection solution 300 mg I/ml, CaNa2-EDTA 56 mg, Trinatriumcitrat 77 mg per 100 ml, pH 5,0 bis 6,0, 37 °C): 4,2 Centipoise; Viskosität bei 37 °C ([3]; injection solution 350 mg I/ml, CaNa2-EDTA 56 mg, Trinatriumcitrat 77 mg per 100 ml, pH 5,0 bis 6,0, 37 °C): 6,6 Centipoise; Viskosität bei 37 °C ([3]; injection solution 400 mg I/ml, CaNa2-EDTA 56 mg, Trinatriumcitrat 77 mg per 100 ml, pH 5,0 bis 6,0, 37 °C): 13,1 Centipoise; Osmolalität ([1]; injection solution 300 mg I/ml, CaNa2-EDTA 56 mg, Trinatriumcitrat 77 mg per 100 ml, pH 5,0 bis 6,0, autoclaved): 301 mOsm/kg; Osmolalität ([1]; injection solution 350 mg I/ml, CaNa2-EDTA 56 mg, Trinatriumcitrat 77 mg per 100 ml, pH 5,0 bis 6,0, autoclaved): 337 mOsm/kg; Osmolalität ([1]; injection solution 400 mg I/ml, CaNa2-EDTA 56 mg, Trinatriumcitrat 77 mg per 100 ml, pH 5,0 bis 6,0, autoclaved): 370 mOsm/kg
C[C@H](O)C(=O)Nc1c(I)c(C(=O)NC(CO)CO)c(I)c(C(=O)NC(CO)CO)c1I [Iopamidol]	16-18 g I/kg	12-13 g I/kg	671	704	–	Viskosität von 300 mg I/ml bei 37 °C [2]: 4,7* cps
CC(=O)N(CC(O)CO)c1c(I)c(C(=O)NCCO)c(I)c(C(=O)NCC(O)CO)c1I (centres unmarked) [Ioxilan, reference compound]	16-18 g I/kg	12-13 g I/kg	560	588	4,7 cps	–
CN(C(=O)CO)c1c(I)c(C(N)=O)c(I)c(C(=O)NC(CO)C(O)CO)c1I (stereo not drawn) [Verbindung 41, 5-{N-(Methyl)-2-hydroxyacetamido}-2,4,6-triiod-3-{N-(1,3,4-trihydroxy-threo-but-2-yl)}-carbamoyl-Benzamid]	16-17,5 g I/kg	15-17 g I/kg	314	322	3,5 cps	–
